Source: patent US11130766B2, “Deuterated thienopiperidine derivatives, manufacturing method, and application thereof” (JIANGSU TASLY DIYI PHARMACEUTICAL CO., LTD., priority 2015, dated 2021)
One block for each molecule: values may come before it.

How the values were obtained:
[1] = system: ADP induced platelet aggregation; assay: ADP induced platelet aggregation, maximum aggregation rate after administration to rats; type: in vivo, Wistar male rats; design: unit not given here; conditions: ADP induced, rats, 3 mg/kg, blood drawn 2 hours after administration
Protocol: Addition of small dose of ADP (concentration less than 0.9 μmol/L) into the platelet suspension could lead to rapid platelet aggregation, followed by quick disaggregation; if moderate dose of ADP (about 1.0 μmol/L) was added, then the second irreversible aggregation phase appeared not long after the end of the first aggregation phase and the disaggregation. The maximum aggregation rate of the irreversible aggregation phase was used to evaluate the effect of the test samples on the function of blood coagulation.
Animals: Wistar male rats, weighing 230-250 g, were purchased from Vital River Laboratory Animal Technology Co., Ltd.
Reagent: ADP, Sigma Corporation.
Test samples: 16 test samples were provided by the Tasly Group; referred to China patent application 201310428052.4 for manufacturing method of TSC-1˜4 and TSC-6˜9.
Dose of administration: the test samples were suspended with 0.25% CMC, administered 3 mg/kg weight, volume of administration: 2 mL.
2 Hours after administration, the rats were anesthetized with pentobarbital sodium, and blood was drawn from the abdominal aorta, anticoagulated with sodium citrate with a ratio of 1:9, and centrifuged to obtain the platelet-rich plasma and platelet-poor plasma, with the mixed ratio of the platelet-poor plasma to platelet-rich plasma=3:1.

esterase = assay: Esterase hydrolysis rates of TSD-8 and clopidogrel bisulfate, in vitro incubation in rat whole blood; type: in vitro ADME; design: sample test results (concentration) Num. 1 / sample test results (concentration) Num. 2 / sample test results (concentration) Num. 3 / sample test results (concentration) Mean: unit not given here; conditions: for sample test results (concentration) Mean / sample test results (concentration) Num. 1 / sample test results (concentration) Num. 2 / sample test results (concentration) Num. 3: rat whole blood, 37° C., 30 μg/mL

SMILES: [2H]C([2H])([2H])OC(=O)[C@H](c1ccccc1Cl)N1CCc2sc(OP(=O)(OC)OC)cc2C1 [TSD-1]
Maximum Platelet Aggregation Rate [1]: 35.6 ± 3.35

SMILES: [2H]C([2H])([2H])OC(=O)[C@H](c1ccccc1Cl)N1CCc2sc(OP(=O)(OC(C)C)OC(C)C)cc2C1 [TSD-3]
Maximum Platelet Aggregation Rate [1]: 28.4 ± 3.27

SMILES: [2H]C([2H])([2H])OC(=O)[C@H](c1ccccc1Cl)N1CCc2sc(OCOP(=O)(OC(C)(C)C)OC(C)(C)C)cc2C1 [TSD-7]
Maximum Platelet Aggregation Rate [1]: 27.1 ± 6.21

SMILES: CC(=O)Oc1cc2c(s1)CCN(C(C(=O)C1CC1)c1ccccc1F)C2 (centres unmarked) [prasugrel, reference compound]
Maximum Platelet Aggregation Rate [1]: 20.72 ± 8.84

SMILES: [2H]C([2H])([2H])OC(=O)[C@H](c1ccccc1Cl)N1CCc2sc(OP(=O)(Oc3ccccc3)Oc3ccccc3)cc2C1 [TSD-4]
Maximum Platelet Aggregation Rate [1]: 36.2 ± 4.16

SMILES: [2H]C([2H])([2H])OC(=O)[C@H](c1ccccc1Cl)N1CCc2sc(OP(=O)(OCC)OCC)cc2C1 [TSD-2]
Maximum Platelet Aggregation Rate [1]: 32.7 ± 5.33

hydrolysis rate in the rat whole blood (esterase; compared with clopidogrel, FIG. 1): slower than that of clopidogrel
sample test results (concentration) Mean (esterase; 10 min): 391.50
sample test results (concentration) Num. 1 (esterase; 10 min): 531
sample test results (concentration) Num. 2 (esterase; 10 min): 252
sample test results (concentration) Mean (esterase; 20 min): 290.00
sample test results (concentration) Num. 1 (esterase; 20 min): 336
sample test results (concentration) Num. 2 (esterase; 20 min): 242
sample test results (concentration) Num. 3 (esterase; 20 min): 292
sample test results (concentration) Mean (esterase; 30 min): 275.33
sample test results (concentration) Num. 1 (esterase; 30 min): 255
sample test results (concentration) Num. 2 (esterase; 30 min): 291
sample test results (concentration) Num. 3 (esterase; 30 min): 280
sample test results (concentration) Mean (esterase; 40 min): 223.00
sample test results (concentration) Num. 1 (esterase; 40 min): 222
sample test results (concentration) Num. 2 (esterase; 40 min): 219
sample test results (concentration) Num. 3 (esterase; 40 min): 228
sample test results (concentration) Mean (esterase; 50 min): 101.67
sample test results (concentration) Num. 1 (esterase; 50 min): 112
sample test results (concentration) Num. 2 (esterase; 50 min): 103
sample test results (concentration) Num. 3 (esterase; 50 min): 90
sample test results (concentration) Mean (esterase; 60 min): 112.00
sample test results (concentration) Num. 1 (esterase; 60 min): 115
sample test results (concentration) Num. 2 (esterase; 60 min): 123
sample test results (concentration) Num. 3 (esterase; 60 min): 98
sample test results (concentration) Mean (esterase; 90 min): 74.63
sample test results (concentration) Num. 1 (esterase; 90 min): 76.3
sample test results (concentration) Num. 2 (esterase; 90 min): 77.4
sample test results (concentration) Num. 3 (esterase; 90 min): 70.2
sample test results (concentration) Mean (esterase; 100 min): 55.40
sample test results (concentration) Num. 1 (esterase; 100 min): 52.7
sample test results (concentration) Num. 2 (esterase; 100 min): 63.2
sample test results (concentration) Num. 3 (esterase; 100 min): 50.3
sample test results (concentration) Mean (esterase; 110 min): 47.90
sample test results (concentration) Num. 1 (esterase; 110 min): 45.7
sample test results (concentration) Num. 2 (esterase; 110 min): 51.5
sample test results (concentration) Num. 3 (esterase; 110 min): 46.5
sample test results (concentration) Mean (esterase; 120 min): 34.90
sample test results (concentration) Num. 1 (esterase; 120 min): 34.3
sample test results (concentration) Num. 2 (esterase; 120 min): 38.7
sample test results (concentration) Num. 3 (esterase; 120 min): 31.7
SMILES: [2H]C([2H])([2H])OC(=O)[C@H](c1ccccc1Cl)N1CCc2sc(OCOP(=O)(O)O)cc2C1 [TSD-8]
Maximum Platelet Aggregation Rate [1]: 16.3 ± 4.16
